According to patent publication EP4273147A1, “SUBSTITUTED SPIROLACTAMS, SALTS THEREOF AND THEIR USE AS HERBICIDALLY ACTIVE SUBSTANCES” (Bayer Aktiengesellschaft, priority 2022, dated 2023):

How the values were obtained:
SETVI [1] = assay: Herbicidal pre-emergence action (Table A5); type: in vivo, Setaria viridis; details: visual grading after ca. 3 weeks
Procedure, shortened: (§1)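 Paired sowings (monocot weed with dicot weed) in potted sandy loam, seeds soil-covered.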

LOLRI = assay: Herbicidal pre-emergence action (Table A3); type: in vivo, Lolium rigidum; details: visual grading after ca. 3 weeks
Procedure, shortened: as §1

POAAN [2] = assay: Herbicidal post-emergence action (Table B7); type: in vivo, Poa annua
Procedure, shortened: (§2)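 Weed seeds sown in sandy loam in pots (one mono- or dicot species per pot), grown in greenhouse; plants treated post-emergence at one-leaf stage, 2–3 weeks after sowing. After ~3 weeks, damage scored visually vs untreated controls (100% = plants dead, 0% = like controls).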

MATIN [3] = assay: Herbicidal post-emergence action (Table B6); type: in vivo, Matricaria inodora; details: rated visually after about 3 weeks
Procedure: (§3) Seeds of mono- and dicotyledonous weed plants were placed in plastic pots in sandy loam soil (doubly sown with in each case one species of mono- or dicotyledonous weed plants per pot), covered with soil and cultivated in a greenhouse under controlled growth conditions. 2 to 3 weeks after sowing, the test plants were treated at the one-leaf stage. […] After the test plants had been kept in the greenhouse under optimum growth conditions for about 3 weeks, the activity of the preparations was rated visually in comparison to untreated controls. For example, 100% activity = the plants have died, 0% activity = like control plants.

POAAN [4] = assay: Herbicidal pre-emergence action (Table A7); type: in vivo, Poa annua; details: application rate 320 g/ha; visual grading after ca. 3 weeks
Procedure, shortened: as §1

ECHCG [5] = assay: Herbicidal pre-emergence action (Table A2); type: in vivo, Echinochloa crus-galli; details: visual grading after ca. 3 weeks
Procedure, shortened: as §1

STEME = assay: Herbicidal pre-emergence action (Table A6); type: in vivo, Stellaria media; details: visual grading after ca. 3 weeks
Procedure, shortened: as §1

ECHCG [6] = assay: Herbicidal post-emergence action (Table B3); type: in vivo, Echinochloa crus-galli; details: rated visually after about 3 weeks
Procedure, shortened: as §2

AMARE = assay: Herbicidal post-emergence action (Table B11); type: in vivo, Amaranthus retroflexus; details: application rate 1280 g/ha
Procedure: as §3

DIGSA [7] = assay: Herbicidal pre-emergence action (Table A12); type: in vivo, Digitaria sanguinalis; details: visual grading after ca. 3 weeks
Procedure, shortened: as §1

ABUTH = assay: Herbicidal pre-emergence action (Table A1); type: in vivo, Abutilon theophrasti; details: application rate 1280 g/ha; visual grading after ca. 3 weeks vs untreated controls (100% = plants have died off, 0% = as control plants)
Text: Seeds of mono- and dicotyledonous weed plants were sown in plastic pots (double sowings with one species of mono- and one species of dicotyledonous weed plants per pot), in sandy loam, and covered with soil.

MATIN [8] = assay: Herbicidal pre-emergence action (Table A4); type: in vivo, Matricaria inodora; details: application rate 1280 g/ha; visual grading after ca. 3 weeks
Procedure, shortened: as §1

KCHSC = assay: Herbicidal pre-emergence action (Table A10); type: in vivo, Kochia scoparia; details: application rate 1280 g/ha; visual grading after ca. 3 weeks
Procedure, shortened: as §1

TRZAS [9] = assay: Pre-emergence effects on crop plants (Table D2); type: in vivo, Triticum aestivum; details: crop plant; application rate 320 g/ha; visual grading after ca. 3 weeks
Text: Seeds of mono- and dicotyledonous weed plants and crop plants were sown, in plastic or organic planting pots, in sandy loam and covered with soil. The compounds according to the invention, formulated in the form of wettable powders (WP) or as emulsifiable concentrates (EC), were applied to the surface of the covering soil as aqueous suspension or emulsion, with the addition of 0.5% of an additive, at an application rate of 600 1 of water/ha (converted).
Following treatment, the pots were placed in a greenhouse and kept under optimum growth conditions for the test plants.

GLXMA = assay: Post-emergence effects on crop plants (Table F4); type: in vivo, Glycine max; details: application rate 320 g/ha, crop plant GLXMA
Text: (§4) 2 to 3 weeks after sowing, the test plants were sprayed in the single-leaf stage.

DIGSA [10] = assay: Herbicidal pre-emergence action, section C (Table C5); type: in vivo, Digitaria sanguinalis; details: application rate 320 g/ha; visual grading after ca. 3 weeks
BRSNW [11] = assay: Post-emergence effects on crop plants (Table F5); type: in vivo, Brassica napus; details: application rate 320 g/ha, crop plant BRSNW
Text: as §4

SETVI [12] = assay: Herbicidal pre-emergence action, section C (Table C10); type: in vivo, Setaria viridis; details: application rate 320 g/ha; visual grading after ca. 3 weeks
ZEAMX [13] = assay: Post-emergence effects on crop plants (Table F1); type: in vivo, Zea mays; details: application rate 320 g/ha, crop plant ZEAMX
Text: as §4

VIOTR = assay: Herbicidal pre-emergence action, section C (Table C12); type: in vivo, Viola tricolor; details: application rate 320 g/ha; visual grading after ca. 3 weeks
TRZAS [14] = assay: Post-emergence effects on crop plants (Table F2); type: in vivo, Triticum aestivum; details: application rate 320 g/ha, crop plant TRZAS
Text: as §4

ZEAMX [15] = assay: Pre-emergence effects on crop plants (Table D1); type: in vivo, Zea mays; details: crop plant; application rate 80 g/ha; visual grading after ca. 3 weeks
BRSNW [16] = assay: Pre-emergence effects on crop plants (Table D5); type: in vivo, Brassica napus; details: crop plant; application rate 320 g/ha; visual grading after ca. 3 weeks
ORYZA [17] = assay: Pre-emergence effects on crop plants (Table D3); details: crop plant; application rate 320 g/ha; visual grading after ca. 3 weeks
ORYZA [18] = assay: Post-emergence effects on crop plants (Table F3); type: in vivo, Oryza sativa; details: application rate 320 g/ha, crop plant ORYZA
Text: as §4

SETVI [19] = assay: Herbicidal post-emergence action (Table B8); type: in vivo, Setaria viridis; details: application rate 1280 g/ha
Procedure: as §3

ALOMY = assay: Herbicidal pre-emergence action (Table A9); type: in vivo, Alopecurus myosuroides; details: application rate 1280 g/ha; visual grading after ca. 3 weeks
Procedure, shortened: as §1

VERPE [20] = assay: Herbicidal post-emergence action (Table B10); type: in vivo, Veronica persica; details: application rate 320 g/ha
Procedure: as §3

VERPE [21] = assay: Herbicidal pre-emergence action (Table A11); type: in vivo, Veronica persica; details: application rate 1280 g/ha; visual grading after ca. 3 weeks
Procedure, shortened: as §1

Structure (SMILES)	pre-emergence activity against SETVI (SETVI [1]; application rate 1280 g/ha)	pre-emergence activity against LOLRI (LOLRI; application rate 1280 g/ha)	post-emergence activity against POAAN (POAAN [2]; application rate 1280 g/ha)	pre-emergence activity against POAAN (POAAN [4])	pre-emergence activity against ECHCG (ECHCG [5]; application rate 1280 g/ha)	pre-emergence activity against STEME (STEME; application rate 1280 g/ha)	post-emergence activity against ECHCG (ECHCG [6]; application rate 1280 g/ha)	post-emergence activity against AMARE (AMARE)	pre-emergence activity against STEME (STEME; application rate 320 g/ha)	pre-emergence activity against DIGSA (DIGSA [7]; application rate 320 g/ha)	pre-emergence activity against ABUTH (ABUTH)	pre-emergence activity against MATIN (MATIN [8])	pre-emergence activity against SETVI (SETVI [1]; application rate 320 g/ha)	other results
Cc1ccc(F)c(CN2CCCC3(CCCN(Cc4c(F)ccc(C)c4F)C3=O)C2=O)c1F (racemic) [I-029]	100%	100%	90%	90%	100%	90%	100%	–	–	–	–	–	–	post-emergence activity against MATIN (MATIN [3]; application rate 1280 g/ha): 100%
COc1c(F)ccc(CN2CCCC3(CCCN(Cc4ccc(F)c(OC)c4F)C3=O)C2=O)c1F (racemic) [I-019]	100%	–	100%	100%	–	–	–	100%	100%	–	–	–	–	–
O=C1N(Cc2ccccc2Cl)CCCC12CCN(Cc1c(F)cccc1F)C2=O (racemic) [I-076]	100%	–	–	100%	100%	–	90%	–	90%	90%	90%	90%	–	pre-emergence activity against LOLRI (LOLRI; application rate 320 g/ha): 100%
O=C1N(Cc2ccccc2)CCC12CCCN(Cc1ccccc1F)C2=O (racemic) [I-093]	–	100%	–	100%	100%	90%	–	–	–	–	90%	90%	100%	pre-emergence activity against DIGSA (DIGSA [7]; application rate 1280 g/ha): 100%; post-emergence activity against POAAN (POAAN [2]; application rate 320 g/ha): 90%; pre-emergence activity against KCHSC (KCHSC): 90%
Cc1cccc(CN2CCCC3(CCCN(Cc4cccc(C)c4F)C3=O)C2=O)c1F (racemic) [I-053]	100%	90%	90%	100%	100%	–	–	–	–	100%	–	–	–	pre-emergence activity against TRZAS (TRZAS [9]): 0%; post-emergence activity against GLXMA (GLXMA): 0%; pre-emergence activity against DIGSA (DIGSA [10]): 100%; post-emergence activity against BRSNW (BRSNW [11]): 20%; pre-emergence activity against SETVI (SETVI [12]): 100%; post-emergence activity against ZEAMX (ZEAMX [13]): 0%; post-emergence activity against MATIN (MATIN [3]; application rate 320 g/ha): 90%; pre-emergence activity against VIOTR (VIOTR): 90%; post-emergence activity against TRZAS (TRZAS [14]): 10%; pre-emergence activity against ZEAMX (ZEAMX [15]): 0%; pre-emergence activity against BRSNW (BRSNW [16]): 10%; pre-emergence activity against ORYZA (ORYZA [17]): 0%; post-emergence activity against ORYZA (ORYZA [18]): 0%
O=C1N(Cc2cccc(Cl)c2F)CCCC12CCCN(Cc1cccc(Cl)c1F)C2=O (racemic) [I-007]	–	100%	90%	100%	–	90%	–	90%	–	–	–	90%	100%	post-emergence activity against SETVI (SETVI [19]): 90%; pre-emergence activity against ECHCG (ECHCG [5]; application rate 320 g/ha): 100%; pre-emergence activity against ALOMY (ALOMY): 90%; post-emergence activity against VERPE (VERPE [20]): 90%; post-emergence activity against ECHCG (ECHCG [6]; application rate 320 g/ha): 100%; pre-emergence activity against VERPE (VERPE [21]): 90%
